In US20170184604A1, “DD1ALPHA RECEPTOR AND USES THEREOF IN IMMUNE DISORDERS” (THE GENERAL HOSPITAL CORPORATION, priority 2014, published 2017):

Key:
human CD8+ T cells = assay: Human T cell activation assay (CFSE proliferation); format: cell-based; conditions: various concentrations with 3 μg/ml anti-CD3
Protocol: (FIG. 5A) DD1α inhibits the activation of human CD4+ T cells and CD8+ T cells. Enriched human CD4+ T cells and CD8+ T cells were stained with CFSE (1 μM) and stimulated with plate-bound anti-CD3 antibody (3 μg/ml) together with 2, 5, or 10 μg/ml of DD1α-Ig proteins or control Ig proteins. The proliferations of CD4+ T or CD8+ T cells were determined by the percentages of CFSE-labeled CD4+ T or CD8+ T cells at the 72-hour culture. The levels of cytokines IFN-γ and TNF-α in culture supernatant were analyzed by ELISA at the 48-hour culture. (FIG. 5B) DD1α-mediated inhibition of T cell activation is modulated by α-PD1 antibodies. […] The proliferation and cytokine production of CD4+ T cells were determined as FIG. 5A. […] The proliferations of CD4+ T cells were determined by percentage of CFSE-diluted CD4+ cells on day 3. The levels of cytokines IFN-γ and IL-2 in culture supernatant were analyzed by ELISA on day 2. (FIG. 5D) DD1α mediates Foxp3+ iTreg cell development. […]
The amount of Ig protein was kept constant at 10 μg/ml by the addition of control Ig protein. […] On day 3, cells were stained with anti-CD4-APC (OKT4, eBioscience for human CD4+ T cells; RM4-5, eBioscience for mouse CD4+ T cells) or anti-CD8-APC (SK1, eBioscience for human CD8+ T cells; 53-6.7, eBioscience for mouse CD8+ T cells) and then analyzed for CFSE dilution by flow cytometry.

[1] = system: wt- or DD1α−/− mouse CD4+ T cells; assay: Ig fusion protein binding to CD4+ T cells from Wt and DD1α−/− mice
Protocol: FIGS. 6A-6E show physical association of DD1α with PD1 but not with PD-L1. (FIG. 6A) Interaction of DD1α with PD1 or DD1α. […] The bound Ig fusion proteins were detected with anti-Ig-APC. Empty vector (pcDNA3.1)-transfected cells stained with Ig proteins are shown as a negative control (gray filled) and other staining is shown as black open. (FIG. 6B) DD1α binds to both DD1α and PD1 on CD4+ T cells. Purified CD4+ T cells from Wt and DD1α−/− mice were assayed for binding to Ig fused DD1α or PD1 proteins. Cells were incubated with DD1α-Ig (open), PD1-Ig (open), or control Ig proteins (gray filled) and the bound Ig fusion proteins were detected by anti-Ig-APC. […] The bound Ig fusion proteins were detected by anti-Ig-APC. Binding amounts were determined by percentage of APC positive cells compared to control Ig protein-bound cells. (FIG. 6C) Ig-pulldown experiments show DD1α interaction with both DD1α and PD1. […] The bead bound proteins were eluted and determined by western blot analysis using anti-HA antibody (asterisks). […] The bead bound proteins were eluted and detected by western blot analysis with anti-DD1α or anti-PD1 antibody (asterisk). […] The levels of indicated proteins were analyzed by western blot analysis. Total RNAs from control siRNA or p53 siRNA transfected MCF7 cells were assessed for mRNA levels of PD1 or PD-L1 by real-time quantitative PCR. […]

DD1α-Ig: the extracellular region of DD1α fused with the immunoglobulin G Fc segment
CD8+ T cell proliferation stimulated by anti-CD3 (human CD8+ T cells): strongly inhibited | binding to the surface of DD1α−/− CD4+ T cells compared with wt-CD4+ T cells [1]: significantly lower
